# Earlier results as cited in patent US20110015587A1, “Irrigation Device and Method Using Same” (priority 2009, published 2011).
# How the values were obtained:
# [1] = test system: Escherichia coli; details: Escherichia coli exposed to hypochlorous acid
# [2] = test system: bacteria; details: 2.6 ppm, 5 minutes
# [3] = test system: bacteria; details: very low concentrations
# [4] = test system: human cells
# [5] = test system: gram-negative and gram-positive bacteria, fungi and yeast including MRSA, Pseudomanas aeruginosa, VRE
# [6] = test system: cellular components of wound healing
molecule,measurement,setting,value
OCl [Hypochlorous acid],time to loss of viability,[1],less than 100 ms
same,growth inhibition,[2],100%
Polyaminopropyl biguanide [PAPB],bactericidal concentration,[3],10 mg/L
same,toxicity to higher organisms such as human cells,[4],very low toxicity
same,"activity against gram-negative and gram-positive bacteria, fungi and yeast",[5],active
povidone-iodine,cytotoxicity to the cellular components of wound healing,[6],cytotoxic
